Results reported in patent US3984501A, “Phenyl- and benzylphosphonate esters” (priority 1975, dated 1976).
Read-outs that look alike come from different tables or passages of the source.

Tests used:
[1] = test system: PGE2-induced contraction of isolated guinea pig ileum (GPI) and isolated rat fundus (RF); test: Inhibition of PGE2-induced contraction of isolated smooth muscle preparations (anti-prostaglandin activity); assay type: cell-based; conditions: for IC50: isolated GPI or RF (tissue not specified per value), incubation 15 min initial exposure, 5 min each successive increment, read-out: I.C.50 (vs PGE2)
Experimental: (§1) The following compounds were tested for their effects on isolated smooth muscle preparations ##SPC18##
(§2) the techniques for setting up the isolated guinea pig ileum (GPI) and isolated rat fundus (RF) were those described in Pharmacological Experiments on Isolated Preparations (E. S. Livingston Ltd., Publishers). The tissues were bathed in Krebs solution and isotonic contractions were recorded. To elicit a maximal contraction after the initial equilibration period, the tissue (GPI or RF) was exposed to 20 ng/ml acetylcholine (ACh). After a dose-dependent pattern was established with ACh, the tissue was exposed to 20 ng/ml of PGE2 in order to elicit a maximal prostaglandin-induced contraction. Test doses of PGE2 and ACh which cause 50% of the maximal contractions were determined.
(§3) To test a compound for anti-prostaglandin activity, the tissue was incubated with a compound for a fixed period of time (15 minutes for the initial exposure to the test drug and 5 minutes for each successive increment in concentration) followed by the test dose of PGE2 or ACh to elicit a tissue contraction. Inhibition of contraction was measured as percent reduction in the magnitude of the response to the test dose of PGE2. The concentration of drug which inhibited the test concentration of PGE2 by 50% (I.C.50) was determined from the dose-response curve obtained by plotting concentration versus percent inhibition. Test contractions with ACh determined whether any decrease in contraction amplitude was specific for prostaglandin-induced contractions or a general deterioration of tissue function. The term selectivitiy refers to % inhibition of ACh-induced contractions at compound dosages which inhibi the PGE2 -induced contraction by the indicated percentage.

[2] = test system: ACh-induced contractions of isolated guinea pig ileum (GPI) and isolated rat fundus (RF); test: Inhibition of ACh-induced contraction of isolated smooth muscle (selectivity); assay type: cell-based; conditions: for Selectivity: % inhibition of ACh-induced contractions at dosages which inhibit the PGE2-induced contraction by 50%: at 50% inhibition of PGE2-induced contraction; for Selectivity: % inhibition of ACh-induced contractions at dosages which inhibit the PGE2-induced contraction by 70%: at 70% inhibition of PGE2-induced contraction; for Selectivity: % inhibition of ACh-induced contractions at dosages which inhibit the PGE2-induced contraction by 90%: at 90% inhibition of PGE2-induced contraction
Experimental: as §1, §2, §3

[3] = Systemic toxicity in male Swiss Webster mice; assay type: in vivo, mouse; conditions: mouse, in vivo, in saline, 24 hours, read-out: L.D.50 at 24 hours
Experimental: (§4) Compounds 1-3 were tested for systemic toxicity. Male Swiss Webster mice were injected (i.p. or p.o.) with the test compound dissolved in saline (0.2 ml). The mice were examined every half hour for the first two hours after treatment and every hour for the following four hours. Thereafter the mice were examined irregularly, with a final examination at the end of the 48-hour test.

[4] = Topical toxicity in hairless mice; conditions: mouse, in vivo, topical or ocular, topically, 0.1 ml of 90% PEG, read-out: L.D.50 at 24 hours
Experimental: Topical toxicity was determined at a single dosage level on two hairless mice. The animals were restrained with neck collars. The test compound was applied in a total volume of 0.1 ml of 90% PEG (10% H2 O) spread uniformly over the back by means of a Q-tip.

male Swiss Webster mice = test: Systemic toxicity in male Swiss Webster mice; assay type: in vivo, mouse; conditions: from Table 2, vs compound 1
Experimental: as §4

## O=C(c1ccc(OP(=O)(O)Oc2ccccc2)cc1)C(Cc1ccccc1)Cc1ccc(Cl)cc1 (centres unmarked) [Compound 1, reference compound]
[1]; Cavia porcellus
  IC50: 0.047 µM
[2]
  Selectivity: % inhibition of ACh-induced contractions at dosages which inhibit the PGE2-induced contraction by 50%: 0%
  Selectivity: % inhibition of ACh-induced contractions at dosages which inhibit the PGE2-induced contraction by 70%: 0%
  Selectivity: % inhibition of ACh-induced contractions at dosages which inhibit the PGE2-induced contraction by 90%: 0%
[3]; ip
  LD50 at 24 h: 194 mg/kg
[3]; po
  LD50 at 24 h: 235 mg/kg
[4]
  LD50 at 24 h: > 4300 mg/kg

## O=C(c1ccc(OP(=O)(O)c2ccccc2)cc1)C(Cc1ccccc1)Cc1ccc(Cl)cc1 (centres unmarked) [Compound 2]
[1]
  IC50: 0.2 µM
[2]
  Selectivity: % inhibition of ACh-induced contractions at dosages which inhibit the PGE2-induced contraction by 50%: 0%
  Selectivity: % inhibition of ACh-induced contractions at dosages which inhibit the PGE2-induced contraction by 70%: 0%
  Selectivity: % inhibition of ACh-induced contractions at dosages which inhibit the PGE2-induced contraction by 90%: 30%
Male Swiss Webster mice
  toxicity relative to compound 1: considerably less toxic than compound 1
[3]; ip
  LD50 at 24 h: 361 mg/kg

## O=C(c1ccc(OP(=O)(O)Cc2ccccc2)cc1)C(Cc1ccccc1)Cc1ccc(Cl)cc1 (centres unmarked) [Compound 3]
[1]
  IC50: 0.0061 µM
[1]; potency ratio vs compound 1, from Table 1
  times more potent than compound 1: about 8 times
[1]; potency ratio vs compound 2, from Table 1
  times more potent than compound 2: approximately 30 times
[2]
  Selectivity: % inhibition of ACh-induced contractions at dosages which inhibit the PGE2-induced contraction by 50%: 0%
  Selectivity: % inhibition of ACh-induced contractions at dosages which inhibit the PGE2-induced contraction by 70%: 0%
  Selectivity: % inhibition of ACh-induced contractions at dosages which inhibit the PGE2-induced contraction by 90%: 10-15%
Male Swiss Webster mice
  toxicity relative to compound 1: considerably less toxic than compound 1
[3]; ip
  LD50 at 24 h: 408 mg/kg
[3]; po
  LD50 at 24 h: 715 mg/kg
[4]
  LD50 at 24 h: > 4350 mg/kg
